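A five-concentration, 48-hour dose response in 96-well plates underlies each endpoint, interpolated linearly between surrounding concentrations. TGI denotes the concentration required for complete inhibition of growth.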
Tests used:
Assay in all cases: inhibition of tumour cell growth, NCI panel, 48 h
786-0 renal = test system: 786-0 renal
A498 renal = test system: A498 renal
A549 NSCLC = test system: A549 NSCLC
ACHN renal = test system: ACHN renal
CAKI-1 renal = test system: CAKI-1 renal
CCRF-CEM leukemia = test system: CCRF-CEM leukemia
COLO 205 colon = test system: COLO 205 colon
DLD-1 colon = test system: DLD-1 colon
DMS 114 small cell lung = test system: DMS 114 small cell lung
EKVX NSCLC = test system: EKVX NSCLC
HCC-2998 colon = test system: HCC-2998 colon
HCT-116 colon = test system: HCT-116 colon
HCT-15 colon = test system: HCT-15 colon
HOP-62 NSCLC = test system: HOP-62 NSCLC
HOP-92 NSCLC = test system: HOP-92 NSCLC
HT29 colon = test system: HT29 colon
IGROV1 ovarian = test system: IGROV1 ovarian
K-562 leukemia = test system: K-562 leukemia
KM12 colon = test system: KM12 colon
KM20L2 colon = test system: KM20L2 colon
LXFL 529 NSCLC = test system: LXFL 529 NSCLC
M14 melanoma = test system: M14 melanoma
M19-MEL melanoma = test system: M19-MEL melanoma
MALME-3M melanoma = test system: MALME-3M melanoma
MOLT-4 leukemia = test system: MOLT-4 leukemia
NCI-H226 lung = test system: NCI-H226 lung
NCI-H23 lung = test system: NCI-H23 lung
NCI-H460 lung = test system: NCI-H460 lung
NCI-H522 lung = test system: NCI-H522 lung
OVCAR-3 ovarian = test system: OVCAR-3 ovarian
OVCAR-4 ovarian = test system: OVCAR-4 ovarian
OVCAR-5 ovarian = test system: OVCAR-5 ovarian
OVCAR-8 ovarian = test system: OVCAR-8 ovarian
RPMI-8226 leukemia = test system: RPMI-8226 leukemia
SF-268 CNS = test system: SF-268 CNS
SF-295 CNS = test system: SF-295 CNS
SK-MEL-2 melanoma = test system: SK-MEL-2 melanoma
SK-MEL-28 melanoma = test system: SK-MEL-28 melanoma
SK-OV-3 ovarian = test system: SK-OV-3 ovarian
SN12C renal = test system: SN12C renal
SNB-19 CNS = test system: SNB-19 CNS
SNB-75 CNS = test system: SNB-75 CNS
SNB-78 CNS = test system: SNB-78 CNS
SR leukemia = test system: SR leukemia
SW-620 colon = test system: SW-620 colon
TK-10 renal = test system: TK-10 renal
U251 CNS = test system: U251 CNS
UACC-257 melanoma = test system: UACC-257 melanoma
UACC-62 melanoma = test system: UACC-62 melanoma
UO-31 renal = test system: UO-31 renal
HL-60(TB) leukemia = test system: HL-60(TB) leukemia
RXF 393 renal = test system: RXF 393 renal
SF-539 CNS = test system: SF-539 CNS

Measured: TGI

O=C1OC(=O)C2C1C1C(c3ccccc3)=C(c3ccccc3)C2(O)C2C(=O)OC(=O)C12 (configuration not stated)
not listed: HL-60(TB) leukemia | RXF 393 renal | SF-539 CNS
> 100 µM: all other assays above

COC(=O)C(Cc1ccccc1)N=Cc1c(O)c(O)c(C(C)C)c2cc(C)c(-c3c(C)cc4c(C(C)C)c(O)c(O)c(C=NC(Cc5ccccc5)C(=O)OC)c4c3O)c(O)c12 (configuration not stated)
51.4 µM: NCI-H460 lung
> 100 µM: HOP-62 NSCLC | IGROV1 ovarian | K-562 leukemia | M19-MEL melanoma | MALME-3M melanoma | SF-268 CNS | SK-MEL-28 melanoma | SNB-19 CNS | SNB-75 CNS
11.6 µM: MOLT-4 leukemia
38.5 µM: CCRF-CEM leukemia | LXFL 529 NSCLC
49.3 µM: OVCAR-5 ovarian
35 µM: RXF 393 renal
55.9 µM: UACC-62 melanoma
59 µM: HL-60(TB) leukemia
80.7 µM: UO-31 renal
92.9 µM: COLO 205 colon
64.5 µM: OVCAR-4 ovarian
54.7 µM: NCI-H522 lung
92.3 µM: RPMI-8226 leukemia
43.6 µM: SF-539 CNS
32.5 µM: HT29 colon
74.3 µM: ACHN renal
52.1 µM: OVCAR-3 ovarian
63 µM: UACC-257 melanoma
39.7 µM: KM12 colon
81 µM: SK-OV-3 ovarian
74.6 µM: NCI-H23 lung
55.3 µM: KM20L2 colon
29.2 µM: SNB-78 CNS
77 µM: HOP-92 NSCLC
55.2 µM: U251 CNS
10.1 µM: SR leukemia
35.6 µM: SF-295 CNS
44 µM: SK-MEL-2 melanoma

Source: PubChem BioAssay (NCI)
